The term Kd denotes the equilibrium constant for the complex coming apart.

Residue numbers refer to the chain shown, from its start. Where no end group is shown, it is not given here. 647 dye = not defined here

Assay [1] deals with R/H168^4.64 apelin receptor, hESC. Briefly: Saturation radioligand binding, R/H168^4.64 hESC membranes. Further details: species or system human. The procedure:
(§1) The radiolabel has a specific activity of 2200 Ci/mmol. Plastic-ware used in radioligand binding experiments was coated with Sigmacote, a siliconising reagent that forms a covalent film to reduce sticking of the radiolabel.
(§2) Membrane protein preparations were made by harvesting CHO-K1 cells transiently transfected with wild-type or variant apelin receptor construct into tubes. Tubes were spun at 1000 xg for 10 min at 4 °C to pellet cells, before resuspending and triturating in ice-cold TRIS wash buffer (50 mM TRIS-HCl in deionised water, pH balanced to 7.4 at room temperature) to induce complete hypotonic lysis of cells. Cells were spun a second time at 21,000 × g for 20 min at 4 °C, to obtain a crude membrane fraction. Supernatant was discarded and membrane preparations resuspended in TRIS wash buffer. Cell membrane preparations were stored at –70 °C until use in experiments. Protein concentration of cell membrane preparations was determined using a DC Protein Assay (Bio-Rad), as per the manufacturer’s instructions.
(§3) For binding experiments, membrane preparations were diluted in binding buffer (50 mM TRIS-HCl and 5 mM MgCl2, balanced to pH 7.4 at room temperature) to give a final protein concentration of 1 mg/mL. […] At the end-point, samples were spun in a centrifuge at 20,000 × g for 10 min at 4 °C to terminate equilibrium. […]

Assay [2] has as its system G/X45^1.49 variant apelin receptor. Briefly: Saturation radioligand binding, CHO-K1 membranes, G/X45^1.49. Further details: species or system human. The protocol:
as §1, §2
(§4) For binding experiments, membrane preparations were diluted in binding buffer (50 mM TRIS-HCl and 5 mM MgCl2, balanced to pH 7.4 at room temperature) to give a final protein concentration of 1 mg/mL. […] At the end-point, samples were spun in a centrifuge at 20,000 × g for 10 min at 4 °C to terminate equilibrium. Supernatant was aspirated, and pellets were resuspended and triturated in 500 μL ice-cold wash buffer, over ice. Samples were spun a second time at 20,000 × g for 10 min at 4 °C, before aspiration of the supernatant. Radioactivity in pellets was counted using a Cobra II model 5003 gamma counter (Packard).
(§5) Saturation binding data were analysed using the EBDA and LIGAND components of the KELL (Kinetic, EBDA, Ligand, Lowry) software package (Biosoft)[58] to generate receptor affinity (KD) and receptor density (Bmax) values. […] Saturation data were presented using the nonlinear one site-specific binding with Hill slope model fitted by GraphPad Prism version 6.07 for Windows (GraphPad Software).

For assay [3], the target named is T1, wild-type apelin receptor (Homo sapiens, UniProt P35414).
T1 construct: expressed in transfected cells; host or cells: CHO-K1 (ECACC 85051005), transient, pcDNA3.1
T1 sequence (P35414 1-380): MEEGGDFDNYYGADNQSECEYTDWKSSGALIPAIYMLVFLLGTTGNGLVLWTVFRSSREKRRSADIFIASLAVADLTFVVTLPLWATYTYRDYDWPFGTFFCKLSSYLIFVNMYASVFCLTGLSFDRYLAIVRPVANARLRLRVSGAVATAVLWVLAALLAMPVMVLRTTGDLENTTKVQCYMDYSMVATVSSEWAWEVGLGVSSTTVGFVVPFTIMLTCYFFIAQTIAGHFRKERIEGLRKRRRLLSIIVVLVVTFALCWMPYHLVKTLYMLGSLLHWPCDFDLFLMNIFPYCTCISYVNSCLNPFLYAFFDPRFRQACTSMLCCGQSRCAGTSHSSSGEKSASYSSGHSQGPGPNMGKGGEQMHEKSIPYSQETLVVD
Nature of the assay: Saturation radioligand binding, CHO-K1 membranes, wild-type. As to conditions: WT; mean ± SD, n = 3. The protocol:
as §1, §2, §3

The target of assay [4] is apelin receptor, homogenised human left ventricle. As to conditions: previously determined by saturation analysis in homogenised human left ventricle; cited from earlier work. The protocol:
Heart Homogenate. Ethically approved (Research Ethics Committee 05/Q104/142) surgical samples of human left ventricle tissue were obtained with informed consent at the time of operation from Royal Papworth Hospital Tissue Bank and stored at -80°C. Tissues were homogenised using a Polytron Homogenizer (Thomas Scientific), in buff ...

Assay [5] addresses T2, T/M89^2.64 variant apelin receptor (Homo sapiens, UniProt P35414, T89M).
T2 construct: expressed in transfected cells; host or cells: CHO-K1, transient, pcDNA3.1
T2 sequence (P35414 1-380 T89M): T1 sequence (P35414 1-380) with T89M
Briefly: Saturation radioligand binding, CHO-K1 membranes, T/M89^2.64. As to conditions: mean ± SD, n = 3. The protocol:
as §1, §2, §3

The subject of assay [6] is untransfected CHO-K1 cells. Briefly: Saturation radioligand binding, untransfected CHO-K1 membranes.
The subject of assay [7] is R/H168^4.64 apelin receptor, hESC-CM. Nature of the assay: Saturation radioligand binding, R/H168^4.64 hESC-CM membranes. Further details: species or system human. The protocol:
as §1, §2, §3

For assay [8], the target named is T3, V/L38^1.42 variant apelin receptor (Homo sapiens, UniProt P35414, V38L).
T3 construct: expressed in transfected cells; host or cells: CHO-K1, transient, pcDNA3.1
T3 sequence (P35414 1-380 V38L): T1 sequence (P35414 1-380) with V38L
Briefly: Saturation radioligand binding, CHO-K1 membranes, V/L38^1.42. The protocol: as §1, §2, §3

Assay [9] concerns the target T4, R/H168^4.64 variant apelin receptor (Homo sapiens, UniProt P35414, R168H).
T4 construct: expressed in transfected cells; host or cells: CHO-K1, transient, pcDNA3.1
T4 sequence (P35414 1-380 R168H): T1 sequence (P35414 1-380) with R168H
Briefly: Saturation radioligand binding, CHO-K1 membranes, R/H168^4.64. The protocol:
as §1, §2, §3

For assay [10], the system named is T/X227^5.64 variant apelin receptor. Briefly: Saturation radioligand binding, CHO-K1 membranes, T/X227^5.64. Further details: species or system human. The procedure: as §1, §2, §4, §5
The test system of assay [11] is G/X45^1.49 variant apelin receptor. Nature of the assay: High content screening, fluorescent ligand binding in transfected CHO-K1 cells, G/X45^1.49. Details: species or system human. As to conditions: 1 µM, 90 min, mean ± SD, n = 4 in triplicate. The protocol: (§6) Cells were maintained at 37 °C, in humidified air containing 5% CO2.
(§7) High content screening was used to characterise apelin receptor variant expression, membrane localisation, and fluorescent ligand binding. CHO-K1 cells transiently transfected with wild-type or variant apelin receptor construct tagged C-terminally with eGFP were plated at ~10,000/well in CellCarrier-96 Ultra Plates (PerkinElmer). […] Fluorescent ligand was washed out with HBSS, and cells were fixed with 4% formaldehyde for ~3 min. […] After a final wash, cells were maintained in 100 µL HBSS.
(§8) Cells maintained in the 96-well plates were imaged on an Opera Phenix High Content Screening System (PerkinElmer), a highly sensitive, dual-camera spinning disk confocal fluorescent imaging platform, using a 40x/NA1.1 water immersion objective. […] Three fluorescent channels were used. […] For all channels, excitation laser intensity was set at 50% power, with a 50 ms exposure time. Additionally, each imaging field was imaged using bright-field and digital phase contrast (DPC). […]
(§9) Mean membrane fluorescence was then quantified for the green channel as an indication of membrane protein expression, and for the red channel as an indication of fluorescent ligand binding.

Assay [12] concerns T/X227^5.64 variant apelin receptor. Briefly: High content screening, fluorescent ligand binding in transfected CHO-K1 cells, T/X227^5.64. As to conditions: 1 µM, 90 min, mean ± SD, n = 4 in triplicate. Details: species or system human. The procedure:
as §6, §7, §8, §9

Where [13] appears, read: 90 min, room temperature, pH 7.4.

With `CCCC[C@H](NC(=O)[C@@H]1CCCN1C(=O)CNC(=O)[C@H](CCCCN)NC(=O)[C@H](Cc1c[nH]cn1)NC(=O)[C@H](CO)NC(=O)[C@H](CC(C)C)NC(=O)[C@H](CCCNC(=N)N)NC(=O)[C@@H]1CCCN1C(=O)[C@H](CCCNC(=N)N)NC(=O)[C@@H]1CCC(=O)N1)C(=O)N1CCC[C@H]1C(=O)N[C@@H](Cc1ccc(O)c(I)c1)C(=O)O` [[^125I]-apelin-13], the “[125I]-apelin-13 binding versus wild-type” value in [1] and in assay [7] was “significantly reduced” throughout. Further, the Bmax result in assay [2] is “NBD”; in assay [3], 236.80 ± 27.07 fmol/mg; in [5], 440.47 ± 38.36 fmol/mg; in [6], “NBD”; in assay [8], “NBD”; in assay [9], “NBD”. In assay [10], the Bmax entry was “NBD”. Besides, the “Hill slope (nH)” value in assay [2] is listed as “NBD”; in assay [3] it was 1.26 ± 0.22; in [5], 1.55 ± 0.22; in assay [6], “NBD”; in [8], “NBD”; in assay [9], “NBD”. Further, the “Hill slope (nH)” value in [10] is listed as “NBD”. Further, the KD result in [2] (setting [13]), in assay [6] (setting [13]) and in assay [10] (setting [13]) was “NBD” throughout. Moreover, in assay [4], the Kd was 0.076 nM.
As for “ELA647: fluorescently labelled ELA peptide ({647 dye}-QRPVNLTMRRKLRKHNCLQRRCMPLHSRVPFP; ends and bridges not checked; UniProt P0DMC3 23-54, looked up)”, the “Mem. ELA647” value in assay [11] is 20.73 ± 12.55 % WT; in assay [12] it was 14.83 ± 7.02 % WT.
